Data from PubChem BioAssay AID1963862 (Molecular Pharmacology Branch, DTP, NCI, 2024).

System: KRAS patient-derived spheroids with HUVEC/MSC, viability
Assay: Anticancer human tumor 941728-121-R-J1-PDC patient-derived lung adenocarcinoma cell line growth inhibition [KRAS2]
Settings: for IC50: curve of first compound; for viability, T/C: stronger effect = lower value
Outline: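 KRAS-mutant tumor cells were grown as spheroids with HUVEC endothelial cells and human MSCs as stroma. Targeted agents were tested alone and with KRAS pathway inhibitors. Doses started at or near clinical Cmax, or 10 microM, descending half-log.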

[1] = second compound 0.1 µM, first compound 0.0316 µM
[2] = second compound 0.1 µM, first compound 0.1 µM
[3] = second compound 0.1 µM, first compound 0.316 µM
[4] = second compound 0.1 µM, first compound 1 µM
[5] = second compound 0.1 µM, first compound 3.16 µM
[6] = second compound 0.316 µM, first compound 0.0316 µM
[7] = second compound 0.316 µM, first compound 0.1 µM
[8] = second compound 0.316 µM, first compound 0.316 µM
[9] = second compound 0.316 µM, first compound 1 µM
[10] = second compound 0.316 µM, first compound 3.16 µM
[11] = second compound 1 µM, first compound 0.0316 µM
[12] = second compound 1 µM, first compound 0.1 µM
[13] = second compound 1 µM, first compound 0.316 µM
[14] = second compound 1 µM, first compound 1 µM
[15] = second compound 1 µM, first compound 3.16 µM
[16] = second compound 3.16 µM, first compound 0.0316 µM
[17] = second compound 3.16 µM, first compound 0.1 µM
[18] = second compound 3.16 µM, first compound 0.316 µM
[19] = second compound 3.16 µM, first compound 1 µM
[20] = second compound 3.16 µM, first compound 3.16 µM
[21] = second compound 10 µM, first compound 0.0316 µM
[22] = second compound 10 µM, first compound 0.1 µM
[23] = second compound 10 µM, first compound 0.316 µM
[24] = second compound 10 µM, first compound 1 µM
[25] = second compound 10 µM, first compound 3.16 µM
[26] = second compound 0.1 µM, first compound 10 µM
[27] = second compound 0.316 µM, first compound 10 µM
[28] = second compound 1 µM, first compound 10 µM
[29] = second compound 3.16 µM, first compound 10 µM
[30] = second compound 10 µM, first compound 10 µM
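Note: spheroids exposed to agents for seven days before readout.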

Compound | IC50 (second compound 0.1 µM) | IC50 (second compound 0.316 µM) | IC50 (second compound 1 µM) | IC50 (second compound 3.16 µM) | IC50 (second compound 10 µM) | viability, T/C [1] | viability, T/C [2] | viability, T/C [3] | viability, T/C [4] | viability, T/C [5] | viability, T/C [6] | viability, T/C [7] | viability, T/C [8] | viability, T/C [9] | viability, T/C [10] | viability, T/C [11] | viability, T/C [12] | viability, T/C [13] | viability, T/C [14] | viability, T/C [15] | also measured
CC1COCCN1c1cc(-c2ccnn2C)c2ccnc(-c3ccn[nH]3)c2n1 (stereo not given) + COc1cc2nc(C)nc(NC(C)c3cc(N)cc(C(F)(F)F)c3)c2cc1OC1CCOC1 | 25.8 nM | 30.7 nM | 14.5 nM | < 10 nM | < 10 nM | 49.5% | 39.9% | 33.9% | 26.8% | 20.3% | 49.5% | 36.8% | 27.2% | 21.9% | 23.6% | 42.7% | 32.9% | 27.9% | 22.5% | 18.6% | viability, T/C (second compound 0.1 µM, first compound 0.01 µM): 56%; viability, T/C (second compound 0.316 µM, first compound 0.01 µM): 58.2%; viability, T/C (second compound 1 µM, first compound 0.01 µM): 53.6%; viability, T/C (second compound 3.16 µM, first compound 0.01 µM): 36.3%; viability, T/C [16]: 32%; viability, T/C [17]: 25.4%; viability, T/C [18]: 18.2%; viability, T/C [19]: 8.31%; viability, T/C [20]: 15.9%; viability, T/C (second compound 10 µM, first compound 0.01 µM): 17.4%; viability, T/C [21]: 21.6%; viability, T/C [22]: 21.9%; viability, T/C [23]: 11.4%; viability, T/C [24]: 9.32%; viability, T/C [25]: 6.09%
CC1OCC2(CCN(c3cnc(Sc4ccnc(N)c4Cl)c(N)n3)CC2)C1N (stereo not given) + COc1cc2nc(C)nc(NC(C)c3cc(N)cc(C(F)(F)F)c3)c2cc1OC1CCOC1 | < 31.6 nM | < 31.6 nM | < 31.6 nM | < 31.6 nM | < 31.6 nM | 49.4% | 43.1% | 38.4% | 36.1% | 39% | 47.2% | 41.4% | 34.1% | 35.7% | 37% | 48% | 43.8% | 35% | 36.2% | 32.3% | viability, T/C [26]: 34.5%; viability, T/C [27]: 39.7%; viability, T/C [28]: 29.9%; viability, T/C [16]: 43.6%; viability, T/C [17]: 39%; viability, T/C [18]: 35.3%; viability, T/C [19]: 33.4%; viability, T/C [20]: 29.5%; viability, T/C [29]: 26.6%; viability, T/C [21]: 30%; viability, T/C [22]: 21.2%; viability, T/C [23]: 13.1%; viability, T/C [24]: 13.3%; viability, T/C [25]: 11.6%; viability, T/C [30]: 5.88%
Cn1nccc1Nc1nccc(-c2cc3c(s2)C(C)(C)N(CCN2CCOCC2)C3=O)n1 + COc1cc2nc(C)nc(NC(C)c3cc(N)cc(C(F)(F)F)c3)c2cc1OC1CCOC1 | 116 nM | 145 nM | 58.6 nM | < 31.6 nM | < 31.6 nM | 60.1% | 52.7% | 43.7% | 39.5% | 39.2% | 64.1% | 55.3% | 38.9% | 38.6% | 39.1% | 55.9% | 44.3% | 41.1% | 37.5% | 38.4% | viability, T/C [26]: 37.8%; viability, T/C [27]: 33.9%; viability, T/C [28]: 35.1%; viability, T/C [16]: 46.5%; viability, T/C [17]: 46.7%; viability, T/C [18]: 40.5%; viability, T/C [19]: 40.6%; viability, T/C [20]: 36.3%; viability, T/C [29]: 31.5%; viability, T/C [21]: 30.7%; viability, T/C [22]: 30.2%; viability, T/C [23]: 22.4%; viability, T/C [24]: 20.4%; viability, T/C [25]: 15%; viability, T/C [30]: 11.2%
